Measurements taken from patent US20180064807A1, “NOVEL LIPIDS AND COMPOSITIONS FOR THE DELIVERY OF THERAPEUTICS” (Arbutus Biopharma Corporation, priority 2008, published 2018).

Key:
Factor VII [1] = test: In vivo determination of efficacy of novel lipid formulations (FVII knockdown, ED50); set-up: species or system C57Bl/6 mice; settings: dose resulting in a 50% reduction in plasma FVII levels compared to control animals; FVII siRNA in cationic lipid/DSPC/cholesterol/PEG-lipid 40/10/40/10; intravenous, 24 h
Method: Cationic lipid containing particles were made using the preformed vesicle method. Cationic lipid, DSPC, cholesterol and PEG-lipid were solubilised in ethanol at a molar ratio of 40/10/40/10, respectively. The lipid mixture was added to an aqueous buffer (50 mM citrate, pH 4) with mixing to a final ethanol and lipid concentration of 30% (vol/vol) and 6.1 mg/mL respectively and allowed to equilibrate at room temperature for 2 min before extrusion. The hydrated lipids were extruded through two stacked 80 nm pore-sized filters (Nuclepore) at 22° C. using a Lipex Extruder (Northern Lipids, Vancouver, BC) until a vesicle diameter of 70-90 nm, as determined by Nicomp analysis, was obtained. This generally required 1-3 passes.
The FVII siRNA (solubilised in a 50 mM citrate, pH 4 aqueous solution containing 30% ethanol) was added to the vesicles, pre-equilibrated to 35° C., at a rate of […] with mixing. After a final target siRNA/lipid ratio of 0.06 (wt/wt) was achieved, the mixture was incubated for a further 30 min at 35° C. to allow vesicle re-organization and encapsulation of the FVII siRNA. The ethanol was then removed and the external buffer replaced with PBS (155 mM NaCl, 3 mM Na2HPO4, 1 mM KH2PO4, pH 7.5) by either dialysis or tangential flow diafiltration. The final encapsulated siRNA-to-lipid ratio was determined after removal of unencapsulated siRNA using size-exclusion spin columns or ion exchange spin columns.
Test formulations were initially assessed for their FVII knockdown in female 7-9 week old, 15-25 g, female C57Bl/6 mice at 0.1, 0.3, 1.0 and 5.0 mg/kg with 3 mice per treatment group. All studies included animals receiving either phosphate-buffered saline (PBS, Control group) or a benchmark formulation. Formulations were diluted to the appropriate concentration in PBS immediately prior to testing. Mice were weighed and the appropriate dosing volumes calculated (10 μl/g body weight). Test and benchmark formulations as well as PBS (for Control animals) were administered intravenously via the lateral tail vein. Animals were anesthetised 24 h later with an intraperitoneal injection of Ketamine/Xylazine and 500-700 μl of blood was collected by cardiac puncture into serum separator tubes (BD Microtainer). Blood was centrifuged at 2,000×g for 10 min at 15° C. and serum was collected and stored at −70° C. until analysis. Serum samples were thawed at 37° C. for 30 min, diluted in PBS and aliquoted into 96-well assay plates. Factor VII levels were assessed using a chromogenic assay (Biophen FVII kit, Hyphen BioMed) according to manufacturer's instructions and absorbance measured in microplate reader equipped with a 405 nm wavelength filter. Plasma FVII levels were quantified and ED50s (dose resulting in a 50% reduction in plasma FVII levels compared to control animals) calculated using a standard curve generated from a pooled sample of serum from Control animals. Those formulations of interest showing high levels of FVII knockdown (ED50<<0.1 mg/kg) were re-tested in independent studies at a lower dose range to confirm potency and establish ED50.

[2] = Determination of pKa of formulated lipids (TNS fluorescence); assay type: physicochemical; settings: probe 2-(p-toluidino)-6-naphthalenesulfonic acid (TNS), 1 µM final, vesicles of cationic lipid/DSPC/CH/PEG-c-DOMG 40:10:40:10, pH 2 to 11
Method: The pKa's of the different ionisable cationic lipids were determined essentially as described (Eastman et al 1992 Biochemistry 31:4262-4268) using the fluorescent probe 2-(p-toluidino)-6-naphthalenesulfonic acid (TNS), which is non-fluorescent in water but becomes appreciably fluorescent when bound to membranes. Vesicles composed of cationic lipid/DSPC/CH/PEG-c-DOMG (40:10:40:10 mole ratio) were diluted to 0.1 mM in buffers (130 mM NaCl, 10 mM CH3COONH4, 10 mM MES, 10 mM HEPES) of various pH's, ranging from 2 to 11. An aliquot of the TNS aqueous solution (1 μM final) was added to the diluted vesicles and after a 30 second equilibration period the fluorescent of the TNS-containing solution was measured at excitation and emission wavelengths of 321 nm and 445 nm, respectively. The pKa of the cationic lipid-containing vesicles was determined by plotting the measured fluorescence against the pH of the solutions and fitting the data to a Sigmodial curve using the commercial graphing program IgorPro.

Factor VII [3] = test: In vivo evaluation of FVII siRNA 1661 using cyclic cationic lipid based formulations (FVII assay); set-up: species or system rodent; settings: lipid particles with FVII siRNA 1661
Method: C57BL/6 mice (Charles River Labs, MA) and Sprague-Dawley rats (Charles River Labs, MA) received either saline or siRNA in desired formulations via tail vein injection at a volume of 0.01 mL/g. At various time points post-administration, animals were anesthesized by isofluorane inhalation and blood was collected into serum separator tubes by retro orbital bleed. Serum levels of Factor VII protein were determined in samples using a chromogenic assay (Coaset Factor VII, DiaPharma Group, OH or Biophen FVII, Aniara Corporation, OH) according to manufacturer protocols. A standard curve was generated using serum collected from saline treated animals. In experiments where liver mRNA levels were assessed, at various time points post-administration, animals were sacrificed and livers were harvested and snap frozen in liquid nitrogen. Frozen liver tissue was ground into powder. Tissue lysates were prepared and liver mRNA levels of Factor VII and apoB were determined using a branched DNA assay (QuantiGene Assay, Panomics, Calif.).
The cyclic cationic lipids 506, 512 and 519-based formulations as described below were prepared, characterized and evaluated in vivo by FVII assay.

| Structure (SMILES) | ED50 (Factor VII [1]) [mg/kg] | pKa [2] | knockdown of FVII protein levels in vivo (Factor VII [3]) |
| --- | --- | --- | --- |
| CCCCC/C=C\C/C=C\CCCCCCCCC1(CCCCCCCC/C=C\C/C=C\CCCCC)OCC2(CCN(C)CC2)O1 [ALNY-148] | 0.3 | 6.53 | – |
| CCCCC/C=C\C/C=C\CCCCCCCCC1(CCCCCCCC/C=C\C/C=C\CCCCC)O[C@H]2CC[C@H](CN(C)C)C[C@H]2O1 [ALNY-122] | 0.55 | – | – |
| CCCCC/C=C\C/C=C\CCCCCCCCO[C@H]1C[C@H](N(C)C)C[C@H]1OCCCCCCCC/C=C\C/C=C\CCCCC [ALNY-117] | >5.0 | – | – |
| CCCCC/C=C\C/C=C\CCCCCCCCC1(CCCCCCCC/C=C\C/C=C\CCCCC)O[C@H]2COC(CN(C)C)[C@H]2O1 (stereo partly drawn) [ALNY-144] | 0.60 | – | – |
| CCCCC/C=C\C/C=C\CCCCCCCC1OC(C)(CCN(C)C)OC1CCCCCCC/C=C\C/C=C\CCCCC (stereo not drawn) [ALNY-152] | 0.15 | 6.6 | – |
| CCCCC/C=C\C/C=C\CCCCCCCCC1(CCCCCCCC/C=C\C/C=C\CCCCC)O[C@H]2[C@@H](OC)OC(CN(C)C)[C@H]2O1 (stereo partly drawn) [ALNY-151] | >5.00 | 5.5 | – |
| CCCCC/C=C\C/C=C\CCCCCCCCC1(CCCCCCCC/C=C\C/C=C\CCCCC)O[C@H]2CC[C@@H](CN(C)C)C[C@H]2O1 [ALNY-121] | 0.5 | 6.6 | – |
| CCCCC/C=C\C/C=C\CCCCCCCCC(CCCCCCCC/C=C\C/C=C\CCCCC)NC(=O)OCCN(C)C [ALNY-202] | 0.12 | 6.52 | – |
| CCCCC/C=C\C/C=C\CCCCCCCCC(CCCCCCCC/C=C\C/C=C\CCCCC)CNC(=O)CCN(C)C [ALNY-201, 3-(dimethylamino)-N-((11Z,14Z)-2-((9Z,12Z)-octadeca-9,12-dienyl)icosa-11,14-dienyl)propanamide] | >5.0 | 8.02 | – |
| CCCCC/C=C\C/C=C\CCCCCCCCC(CCCCCCCC/C=C\C/C=C\CCCCC)CNC(=O)OCCN(C)C [ALNY-203] | 5.0 | 7.07 | – |
| CCCCC/C=C\C/C=C\CCCCCCCCC(CCCCCCCC/C=C\C/C=C\CCCCC)OC(=O)NCCN(C)C [ALNY-190] | 0.47 | 6.49 | – |
| CCCCC/C=C\C/C=C\CCCCCCCCC1(CCCCCCCC/C=C\C/C=C\CCCCC)O[C@H]2C[C@H](N(C)C)C[C@H]2O1 [ALNY-100] | 0.3 | 6.4 | – |
| CCCCC/C=C\C/C=C\CCCCCCCCC1(CCCCCCCC/C=C\C/C=C\CCCCC)OCC(CCN(C)Cc2cccnc2)O1 (stereo not drawn) [ALNY-140] | >5.0 | 4.95 | – |
| CCCCC/C=C\C/C=C\CCCCCCCCC1(CCCCCCCC/C=C\C/C=C\CCCCC)O[C@H]2C[C@H](CN(C)C)C[C@H]2O1 [ALNY-116] | 1.0 | – | – |
| CCCCC/C=C\C/C=C\CCCCCCCCC1(CCCCCCCC/C=C\C/C=C\CCCCC)O[C@H]2CCN(C)CC[C@H]2O1 [ALNY-106] | 0.3 | 6.85 | – |
| CCCCC/C=C\C/C=C\CCCCCCCCC1(CCCCCCCCCC)O[C@H]2C[C@H](N(C)C)C[C@H]2O1 (stereo partly drawn) [ALNY-110] | 2.0 | 6.5 | – |
| CCCCC/C=C\C/C=C\CCCCCCCCC1(CCCCCCCC/C=C\C/C=C\CCCCC)O[C@H]2C[C@@H](N(C)C)CC[C@H]2O1 [ALNY-102] | 2.0 | 7.3 | – |
| CCCCC/C=C\C/C=C\CCCCCCCCC(CCCCCCCC/C=C\C/C=C\CCCCC)CNC(=O)OCCCN(C)C [ALNY-200] | >5.00 | 7.57 | – |

| Structure (SMILES) | ED50 (Factor VII [1]) [mg/kg] | pKa [2] | knockdown of FVII protein levels in vivo (Factor VII [3]) |
| --- | --- | --- | --- |
| CCCCC/C=C\C/C=C\CCCCCCCCC(CCCCCCCC/C=C\C/C=C\CCCCC)SSCCN(C)C [ALNY-160] | 2.00 | 5.18 | – |
| CCCCC/C=C\C/C=C\CCCCCCCCC1(CCCCCCCC/C=C\C/C=C\CCCCC)O[C@H]2C[C@@H](CN(C)C)C[C@H]2O1 [ALNY-115] | 1.0 | – | – |
| CCCCC/C=C\C/C=C\CCCCCCCCC(CCCCCCCC/C=C\C/C=C\CCCCC)ON=C(C)CCN(C)C [ALNY-149] | 0.1 | 5.81 | – |
| CCCCC/C=C\C/C=C\CCCCCCCC1OC2(CCN(C)CC2)OC1CCCCCCC/C=C\C/C=C\CCCCC (stereo not drawn) [ALNY-156] | – | 6.08 | – |
| CCCCC/C=C\C/C=C\CCCCCCCCC1(CCCCCCCC/C=C\C/C=C\CCCCC)O[C@H]2CCN(C)C[C@H]2O1 [ALNY-105] | 1.5 | 5.6 | – |
| CCCCC/C=C\C/C=C\CCCCCCCCC1(CCCCCCCCCCCCCCCCCC)O[C@H]2C[C@H](N(C)C)C[C@H]2O1 (stereo partly drawn) [ALNY-108] | 0.75 | 6.55 | – |
| CCCCC/C=C\C/C=C\CCCCCCCCC(CCCCCCCC/C=C\C/C=C\CCCCC)CN(C)CCN(C)C [ALNY-141] | 0.14 | 6.62 | – |
| CCCCC/C=C\C/C=C\CCCCCCCCC1(CCCCCCCC/C=C\CCCCCCCC)O[C@H]2C[C@H](N(C)C)C[C@H]2O1 (stereo partly drawn) [ALNY-107] | 0.25 | 6.63 | – |
| CCCCC/C=C\C/C=C\CCCCCCCC1OC2(CCC(N(C)C)CC2)OC1CCCCCCC/C=C\C/C=C\CCCCC (stereo not drawn) [ALNY-158] | 1.40 | – | – |
| CCCCC/C=C\C/C=C\CCCCCCCCC1(CCCCCCCC/C=C\C/C=C\CCCCC)O[C@H]2C[C@H](N(C)C)CC[C@H]2O1 [ALNY-103] | 2.5 | 6.98 | – |
| CCCCC/C=C\C/C=C\CCCCCCCCC1(CCCCCCCCCCCC)O[C@H]2C[C@H](N(C)C)C[C@H]2O1 (stereo partly drawn) [ALNY-109] | 2.0 | 6.75 | – |
| CCCCC/C=C\C/C=C\CCCCCCCCC(CCCCCCCC/C=C\C/C=C\CCCCC)NC(=O)OCCCN(C)C [ALNY-192] | 2.1 | 7.21 | – |
| CCCCC/C=C\C/C=C\CCCCCCCCC(CCCCCCCC/C=C\C/C=C\CCCCC)=NNCCN(C)C [ALNY-175] | 2.7 | – | – |
| CCCCC/C=C\C/C=C\CCCCCCCCC1(CCCCCCCC/C=C\C/C=C\CCCCC)O[C@H]2C[C@@H](N(C)C)C[C@H]2O1 [Compound 519] | – | – | almost complete knockdown |
| CCCCC/C=C\C/C=C\CCCCCCCCC1(CCCCCCCC/C=C\C/C=C\CCCCC)O[C@@H]2CC[C@H](N(C)C)C[C@H]2O1 [ALNY-169] | 2.60 | – | – |
| CCCCC/C=C\C/C=C\CCCCCCCCC1(CCCCCCCC/C=C\C/C=C\CCCCC)O[C@H]2CN(C)C[C@H]2O1 [ALNY-104] | 2.5 | 5.65 | – |
| CCCCC/C=C\C/C=C\CCCCCCCCC1(CCCCCCCC/C=C\C/C=C\CCCCC)O[C@H]2C[C@@H](N(C)C)C[C@H]2O1 [ALNY-101] | 0.1 | 6.43 | – |
